Test results: US6737383B1, “Herbicidal oxadiazolidines” (priority 1999, dated 2004)

Key:
wild oat = experiment: Test B pre/postemergence wild oat; format: in vivo, Avena fatua
Outline: (§1)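 Response is a visual 0-to-10 score relative to untreated plants, where 0 means no effect and 10 means complete control, taken twelve to sixteen days after application. Treatments went onto soil at planting and onto foliage of 1- to 4-leaf plants, using a surfactant-containing non-phytotoxic solvent.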

velvetleaf = experiment: Test B pre/postemergence velvetleaf; format: in vivo, Abutilon theophrasti
Outline: as §1

purple nutsedge = experiment: Test B pre/postemergence purple nutsedge; format: in vivo, Cyperus rotundus
Outline: as §1

giant foxtail = experiment: Test B pre/postemergence giant foxtail; format: in vivo, Setaria faberii
Outline: as §1

sugar beet = experiment: Test B pre/postemergence sugar beet; format: in vivo, Beta vulgaris
Outline: as §1

cocklebur = experiment: Test B pre/postemergence cocklebur; format: in vivo, Xanthium strumarium
Outline: as §1

morningglory = experiment: Test B pre/postemergence morningglory; format: in vivo, Ipomoea hederacea
Outline: as §1

smallflower flatsedge = experiment: Test B flood test smallflower flatsedge; format: in vivo, Cyperus difformis
Outline: (§2)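 Read-out is a visual response score from 0 (no effect) to 10 (complete control), assigned by comparison with untreated controls. Treatment was applied at the 2-leaf stage, and plants stayed in the greenhouse for twelve to sixteen days before scoring.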

crabgrass = experiment: Test B pre/postemergence crabgrass; format: in vivo, Digitaria sanguinalis
Outline: as §1

soybean = experiment: Test B pre/postemergence soybean; format: in vivo, Glycine max
Outline: as §1

corn = experiment: Test B pre/postemergence corn; format: in vivo, Zea mays
Outline: as §1

rape = experiment: Test B pre/postemergence rape; format: in vivo, Brassica napus
Outline: as §1

surinam grass = experiment: Test B pre/postemergence surinam grass; format: in vivo, Brachiaria decumbens
Outline: as §1

wheat = experiment: Test B pre/postemergence wheat; format: in vivo, Triticum aestivum
Outline: as §1

duck salad = experiment: Test B flood test duck salad; format: in vivo, Heteranthera limosa
Outline: as §2

blackgrass = experiment: Test B pre/postemergence blackgrass; format: in vivo, Alopecurus myosuroides
Outline: as §1

[1] = Postemergence, Rate 62 g/ha, scale 0 to 10, 0 is no effect, 10 is complete control
[2] = Postemergence, Rate 125 g/ha, scale of 0 to 10 where 0 is no effect and 10 is complete control
[3] = Postemergence, Rate 250 g/ha, scale of 0 to 10, 0 is no effect, 10 is complete control
[4] = Postemergence, Rate 500 g/ha, scale of 0 to 10 where 0 is no effect and 10 is complete control
[5] = Preemergence, Rate 62 g/ha, scale 0 to 10 (0 no effect, 10 complete control)
[6] = Preemergence, Rate 125 g/ha, scale of 0 to 10 where 0 is no effect and 10 is complete control
[7] = Preemergence, Rate 250 g/ha, scale 0 to 10 (0 no effect, 10 complete control)
[8] = Preemergence, Rate 500 g/ha, scale of 0 to 10 where 0 is no effect and 10 is complete control
[9] = Rate 62 g/ha, flood test species, Pre-emergence, visual evaluation after twelve to sixteen days
[10] = Rate 125 g/ha, under heading Pre-emergence, flood test species, visual evaluation after twelve to sixteen days
[11] = Rate 250 g/ha, Pre-emergence (flood test species), scale 0 to 10, 0 is no effect, 10 is complete control
[12] = Rate 500 g/ha, Pre-emergence section of Table B, 0 to 10 scale (0 no effect, 10 complete control)

CCOC(=O)CC(C(=O)OCC)n1c(=O)on(C(=O)N(c2ccc(F)cc2)C(C)C)c1=O (stereo not shown) [Compound 615]
3: Soybean plant response rating (soybean; [3]) | Plant response rating, Soybean (soybean; [4])
4: Crabgrass plant response rating (crabgrass; [3]) | Blackgrass plant response rating (blackgrass; [8])
7: Plant response rating, Giant foxtail (giant foxtail; [8])
6: Giant foxtail plant response rating (giant foxtail; [3]) | Plant response rating, Giant foxtail (giant foxtail; [4]) | Plant response rating, Sugarbeets (sugar beet; [8])
1: Plant response rating, Morningglory (morningglory; [2]) | Morningglory plant response rating (morningglory; [3]) | Plant response rating, Morningglory (morningglory; [4]) | Plant response rating, Soybean (soybean; [1]) | Plant response rating, Soybean (soybean; [2])
0: Plant response rating, Wild oats (wild oat; [1]) | Plant response rating, Wild oats (wild oat; [2]) | Wild oats plant response rating (wild oat; [3]) | Plant response rating, Wild oats (wild oat; [4]) | Wild oats plant response rating (wild oat; [5]) | Wild oats plant response rating (wild oat; [6]) | Plant response rating, Wild oats (wild oat; [7]) | Plant response rating, Wild oats (wild oat; [8]) | Plant response rating, Velvetleaf (velvetleaf; [1]) | Plant response rating, Velvetleaf (velvetleaf; [2]) | Velvetleaf plant response rating (velvetleaf; [3]) | Plant response rating, Velvetleaf (velvetleaf; [4]) | Velvetleaf plant response rating (velvetleaf; [5]) | Velvetleaf plant response rating (velvetleaf; [6]) | Plant response rating, Velvetleaf (velvetleaf; [7]) | Plant response rating, Velvetleaf (velvetleaf; [8]) | Plant response rating, Nutsedge (purple nutsedge; [1]) | Plant response rating, Nutsedge (purple nutsedge; [2]) | Nutsedge plant response rating (purple nutsedge; [3]) | Nutsedge plant response rating (purple nutsedge; [5]) | Nutsedge plant response rating (purple nutsedge; [6]) | Plant response rating, Nutsedge (purple nutsedge; [7]) | Plant response rating, Nutsedge (purple nutsedge; [8]) | Plant response rating, Giant foxtail (giant foxtail; [1]) | Plant response rating, Giant foxtail (giant foxtail; [2]) | Giant foxtail plant response rating (giant foxtail; [5]) | Giant foxtail plant response rating (giant foxtail; [6]) | Plant response rating, Giant foxtail (giant foxtail; [7]) | Plant response rating, Sugarbeets (sugar beet; [1]) | Plant response rating, Sugarbeets (sugar beet; [2]) | Sugarbeets plant response rating (sugar beet; [3]) | Plant response rating, Sugarbeets (sugar beet; [4]) | Sugarbeets plant response rating (sugar beet; [5]) | Sugarbeets plant response rating (sugar beet; [6]) | Plant response rating, Sugarbeets (sugar beet; [7]) | Plant response rating, Cocklebur (cocklebur; [1]) | Plant response rating, Cocklebur (cocklebur; [2]) | Cocklebur plant response rating (cocklebur; [3]) | Plant response rating, Cocklebur (cocklebur; [4]) | Cocklebur plant response rating (cocklebur; [5]) | Cocklebur plant response rating (cocklebur; [6]) | Plant response rating, Cocklebur (cocklebur; [7]) | Plant response rating, Cocklebur (cocklebur; [8]) | Plant response rating, Morningglory (morningglory; [1]) | Morningglory plant response rating (morningglory; [5]) | Morningglory plant response rating (morningglory; [6]) | Plant response rating, Morningglory (morningglory; [7]) | Plant response rating, Morningglory (morningglory; [8]) | Plant response rating, S. Flatsedge (0 to 10 scale, 0 is no effect, 10 is complete control) (smallflower flatsedge; [9]) | S. Flatsedge plant response rating (0 to 10 scale, 0 is no effect, 10 is complete control) (smallflower flatsedge; [10]) | S. Flatsedge plant response rating (smallflower flatsedge; [11]) | S. Flatsedge plant response rating (smallflower flatsedge; [12]) | Plant response rating, Crabgrass (crabgrass; [1]) | Plant response rating, Crabgrass (crabgrass; [2]) | Crabgrass plant response rating (crabgrass; [5]) | Crabgrass plant response rating (crabgrass; [6]) | Plant response rating, Crabgrass (crabgrass; [7]) | Plant response rating, Crabgrass (crabgrass; [8]) | Soybean plant response rating (soybean; [5]) | Soybean plant response rating (soybean; [6]) | Plant response rating, Soybean (soybean; [7]) | Plant response rating, Soybean (soybean; [8]) | Plant response rating, Corn (corn; [1]) | Plant response rating, Corn (corn; [2]) | Corn plant response rating (corn; [3]) | Plant response rating, Corn (corn; [4]) | Corn plant response rating (corn; [5]) | Corn plant response rating (corn; [6]) | Plant response rating, Corn (corn; [7]) | Plant response rating, Corn (corn; [8]) | Plant response rating, Rape (rape; [1]) | Plant response rating, Rape (rape; [2]) | Rape plant response rating (rape; [3]) | Plant response rating, Rape (rape; [4]) | Rape plant response rating (rape; [5]) | Rape plant response rating (rape; [6]) | Plant response rating, Rape (rape; [7]) | Plant response rating, Rape (rape; [8]) | Plant response rating, B. signalgrass (surinam grass; [1]) | Plant response rating, B. signalgrass (surinam grass; [2]) | B. signalgrass plant response rating (surinam grass; [3]) | Plant response rating, B. signalgrass (surinam grass; [4]) | B. signalgrass plant response rating (surinam grass; [5]) | B. signalgrass plant response rating (surinam grass; [6]) | Plant response rating, B. signalgrass (surinam grass; [7]) | B. signalgrass plant response rating (surinam grass; [8]) | Plant response rating, Wheat (wheat; [1]) | Plant response rating, Wheat (wheat; [2]) | Wheat plant response rating (wheat; [3]) | Plant response rating, Wheat (wheat; [4]) | Wheat plant response rating (wheat; [5]) | Wheat plant response rating (wheat; [6]) | Plant response rating, Wheat (wheat; [7]) | Plant response rating, Wheat (wheat; [8]) | Plant response rating, Ducksalad (0 to 10 scale, 0 is no effect, 10 is complete control) (duck salad; [9]) | Ducksalad plant response rating (0 to 10 scale, 0 is no effect, 10 is complete control) (duck salad; [10]) | Ducksalad plant response rating (duck salad; [11]) | Ducksalad plant response rating (duck salad; [12]) | Plant response rating, Blackgrass (blackgrass; [1]) | Plant response rating, Blackgrass (blackgrass; [2]) | Blackgrass plant response rating (blackgrass; [3]) | Plant response rating, Blackgrass (blackgrass; [4]) | Blackgrass plant response rating (blackgrass; [5]) | Blackgrass plant response rating (blackgrass; [6]) | Plant response rating, Blackgrass (blackgrass; [7])
